Laboratory results reported in ChEMBL document CHEMBL3046329, “Sensitivity to silthiofam, tebuconazole and difenoconazole of Gaeumannomyces graminis var. tritici isolates from China” (Pest Manag Sci, 2012).
Converted amounts (≈) assume the structure as drawn.

Legend:
Type in all cases: functional, organism-based
Gaeumannomyces tritici [1] = experiment: Antifungal activity against sithiofam-resistant Gaeumannomyces graminis var. tritici isolate JS07 expressing C1 genetic cluster assessed as reduction in fungal colony diameter after 4 days; conditions: isolate JS07, 96 h
Gaeumannomyces tritici [2] = experiment: Antifungal activity against sithiofam-resistant Gaeumannomyces graminis var. tritici isolate JS06 expressing C1 genetic cluster assessed as reduction in fungal colony diameter after 4 days; conditions: isolate JS06, 96 h
Gaeumannomyces tritici [3] = experiment: Antifungal activity against sithiofam-resistant Gaeumannomyces graminis var. tritici isolate JS05 expressing C1 genetic cluster assessed as reduction in fungal colony diameter after 4 days; conditions: isolate JS05, 96 h
Gaeumannomyces tritici [4] = experiment: Antifungal activity against sithiofam-sensitive Gaeumannomyces graminis var. tritici isolate JS02 expressing C1 genetic cluster assessed as reduction in fungal colony diameter after 4 days; conditions: isolate JS02, 96 h
Gaeumannomyces tritici [5] = experiment: Antifungal activity against sithiofam-resistant Gaeumannomyces graminis var. tritici isolate JS12 expressing C1 genetic cluster assessed as reduction in fungal colony diameter after 4 days; conditions: isolate JS12, 96 h
Gaeumannomyces tritici [6] = experiment: Antifungal activity against sithiofam-resistant Gaeumannomyces graminis var. tritici isolate JS11 expressing C1 genetic cluster assessed as reduction in fungal colony diameter after 4 days; conditions: isolate JS11, 96 h
Gaeumannomyces tritici [7] = experiment: Antifungal activity against sithiofam-sensitive Gaeumannomyces graminis var. tritici isolate JS10 expressing C2 genetic cluster assessed as reduction in fungal colony diameter after 4 days; conditions: isolate JS10, 96 h
Gaeumannomyces tritici [8] = experiment: Antifungal activity against sithiofam-resistant Gaeumannomyces graminis var. tritici isolate JS09 expressing C1 genetic cluster assessed as reduction in fungal colony diameter after 4 days; conditions: isolate JS09, 96 h
Gaeumannomyces tritici [9] = experiment: Antifungal activity against sithiofam-sensitive Gaeumannomyces graminis var. tritici isolate HN21 expressing C2 genetic cluster assessed as reduction in fungal colony diameter after 4 days; conditions: isolate HN21, 96 h
Gaeumannomyces tritici [10] = experiment: Antifungal activity against sithiofam-resistant Gaeumannomyces graminis var. tritici isolate HN20 expressing C1 genetic cluster assessed as reduction in fungal colony diameter after 4 days; conditions: isolate HN20, 96 h
Gaeumannomyces tritici [11] = experiment: Antifungal activity against sithiofam-sensitive Gaeumannomyces graminis var. tritici isolate HN18 expressing C2 genetic cluster assessed as reduction in fungal colony diameter after 4 days; conditions: isolate HN18, 96 h
Gaeumannomyces tritici [12] = experiment: Antifungal activity against sithiofam-sensitive Gaeumannomyces graminis var. tritici isolate HN24 expressing C2 genetic cluster assessed as reduction in fungal colony diameter after 4 days; conditions: isolate HN24, 96 h
Gaeumannomyces tritici [13] = experiment: Antifungal activity against sithiofam-sensitive Gaeumannomyces graminis var. tritici isolate HN14 expressing C2 genetic cluster assessed as reduction in fungal colony diameter after 4 days; conditions: isolate HN14, 96 h
Gaeumannomyces tritici [14] = experiment: Antifungal activity against sithiofam-sensitive Gaeumannomyces graminis var. tritici isolate HN11 expressing C2 genetic cluster assessed as reduction in fungal colony diameter after 4 days; conditions: isolate HN11, HN11, 96 h
Gaeumannomyces tritici [15] = experiment: Antifungal activity against sithiofam-resistant Gaeumannomyces graminis var. tritici isolate HN10 expressing C1 genetic cluster assessed as reduction in fungal colony diameter after 4 days; conditions: isolate HN10, 96 h
Gaeumannomyces tritici [16] = experiment: Antifungal activity against sithiofam-resistant Gaeumannomyces graminis var. tritici isolate HN09 expressing C1 genetic cluster assessed as reduction in fungal colony diameter after 4 days; conditions: isolate HN09, 96 h
Gaeumannomyces tritici [17] = experiment: Antifungal activity against sithiofam-resistant Gaeumannomyces graminis var. tritici isolate HN08 expressing C1 genetic cluster assessed as reduction in fungal colony diameter after 4 days; conditions: isolate HN08, 96 h
Gaeumannomyces tritici [18] = experiment: Antifungal activity against sithiofam-resistant Gaeumannomyces graminis var. tritici isolate HN06 expressing C1 genetic cluster assessed as reduction in fungal colony diameter after 4 days; conditions: isolate HN06, 96 h
Gaeumannomyces tritici [19] = experiment: Antifungal activity against sithiofam-resistant Gaeumannomyces graminis var. tritici isolate HN05 expressing C1 genetic cluster assessed as reduction in fungal colony diameter after 4 days; conditions: isolate HN05, 96 h
Gaeumannomyces tritici [20] = experiment: Antifungal activity against sithiofam-resistant Gaeumannomyces graminis var. tritici isolate HN02 expressing C1 genetic cluster assessed as reduction in fungal colony diameter after 4 days; conditions: isolate HN02, 96 h
Gaeumannomyces tritici [21] = experiment: Antifungal activity against sithiofam-resistant Gaeumannomyces graminis var. tritici isolate HN01 expressing C1 genetic cluster assessed as reduction in fungal colony diameter after 4 days; conditions: isolate HN01, 96 h
Gaeumannomyces tritici [22] = experiment: Antifungal activity against sithiofam-sensitive Gaeumannomyces graminis var. tritici isolate AH09 expressing C2 genetic cluster assessed as reduction in fungal colony diameter after 4 days; conditions: isolate AH09, 96 h
Gaeumannomyces tritici [23] = experiment: Antifungal activity against sithiofam-sensitive Gaeumannomyces graminis var. tritici isolate HN17 expressing C2 genetic cluster assessed as reduction in fungal colony diameter after 4 days; conditions: isolate HN17, 96 h
Gaeumannomyces tritici [24] = experiment: Antifungal activity against sithiofam-sensitive Gaeumannomyces graminis var. tritici isolate HN15 expressing C2 genetic cluster assessed as reduction in fungal colony diameter after 4 days; conditions: isolate HN15, 96 h
Gaeumannomyces tritici [25] = experiment: Antifungal activity against sithiofam-sensitive Gaeumannomyces graminis var. tritici isolate AH07 expressing C2 genetic cluster assessed as reduction in fungal colony diameter after 4 days; conditions: isolate AH07, 96 h
Gaeumannomyces tritici [26] = experiment: Antifungal activity against sithiofam-sensitive Gaeumannomyces graminis var. tritici isolate AH04 expressing C2 genetic cluster assessed as reduction in fungal colony diameter after 4 days; conditions: isolate AH04, 96 h
Gaeumannomyces tritici [27] = experiment: Antifungal activity against sithiofam-resistant Gaeumannomyces graminis var. tritici isolate AH02 expressing C1 genetic cluster assessed as reduction in fungal colony diameter after 4 days; conditions: isolate AH02, 96 h
Gaeumannomyces tritici [28] = experiment: Antifungal activity against sithiofam-sensitive Gaeumannomyces graminis var. tritici isolate AH01 expressing C2 genetic cluster assessed as reduction in fungal colony diameter after 4 days; conditions: isolate AH01, 96 h
Gaeumannomyces tritici [29] = experiment: Antifungal activity against sithiofam-sensitive Gaeumannomyces graminis var. tritici isolate SD04 expressing C2 genetic cluster assessed as reduction in fungal colony diameter after 4 days; conditions: isolate SD04, 96 h
Gaeumannomyces tritici [30] = experiment: Antifungal activity against sithiofam-sensitive Gaeumannomyces graminis var. tritici isolate SD03 expressing C2 genetic cluster assessed as reduction in fungal colony diameter after 4 days; conditions: isolate SD03, 96 h
Gaeumannomyces tritici [31] = experiment: Antifungal activity against sithiofam-sensitive Gaeumannomyces graminis var. tritici isolate SD02 expressing C2 genetic cluster assessed as reduction in fungal colony diameter after 4 days; conditions: isolate SD02, 96 h
Gaeumannomyces tritici [32] = experiment: Antifungal activity against sithiofam-resistant Gaeumannomyces graminis var. tritici isolate AH14 expressing C1 genetic cluster assessed as reduction in fungal colony diameter after 4 days; conditions: isolate AH14, 96 h
Gaeumannomyces tritici [33] = experiment: Antifungal activity against sithiofam-resistant Gaeumannomyces graminis var. tritici isolate AH13 expressing C1 genetic cluster assessed as reduction in fungal colony diameter after 4 days; conditions: isolate AH13, 96 h
Gaeumannomyces tritici [34] = experiment: Antifungal activity against sithiofam-sensitive Gaeumannomyces graminis var. tritici isolate AH12 expressing C2 genetic cluster assessed as reduction in fungal colony diameter after 4 days; conditions: isolate AH12, 96 h
Gaeumannomyces tritici [35] = experiment: Antifungal activity against sithiofam-resistant Gaeumannomyces graminis var. tritici isolate AH10 expressing C1 genetic cluster assessed as reduction in fungal colony diameter after 4 days; conditions: isolate AH10, 96 h
Gaeumannomyces tritici [36] = experiment: Antifungal activity against sithiofam-sensitive Gaeumannomyces graminis var. tritici isolate HN32 expressing C2 genetic cluster assessed as reduction in fungal colony diameter after 4 days; conditions: isolate HN32, 96 h
Gaeumannomyces tritici [37] = experiment: Antifungal activity against sithiofam-sensitive Gaeumannomyces graminis var. tritici isolate HN30 expressing C2 genetic cluster assessed as reduction in fungal colony diameter after 4 days; conditions: isolate HN30, 96 h

In the case of `CC1COC(Cn2cncn2)(c2ccc(Oc3ccc(Cl)cc3)cc2Cl)O1` (configuration not stated) [DIFENOCONAZOLE], the EC50 (Gaeumannomyces tritici [1]) is reported as 0.201 µg/mL (≈ 0.495 µM), the EC50 (Gaeumannomyces tritici [2]) is reported as 0.223 µg/mL (≈ 0.548 µM) and the EC50 (Gaeumannomyces tritici [3]) is reported as 0.213 µg/mL (≈ 0.525 µM). For the same compound, the EC50 (Gaeumannomyces tritici [4]) was 0.28 µg/mL (≈ 0.689 µM), the EC50 (Gaeumannomyces tritici [5]) was 0.116 µg/mL (≈ 0.287 µM) and the EC50 (Gaeumannomyces tritici [6]) was 0.164 µg/mL (≈ 0.403 µM). It also gave an EC50 (Gaeumannomyces tritici [7]) of 0.313 µg/mL (≈ 0.771 µM), an EC50 (Gaeumannomyces tritici [8]) of 0.13 µg/mL (≈ 0.32 µM) and an EC50 (Gaeumannomyces tritici [9]) of 0.254 µg/mL (≈ 0.625 µM). It also gave an EC50 (Gaeumannomyces tritici [10]) of 0.569 µg/mL (≈ 1.4 µM), an EC50 (Gaeumannomyces tritici [11]) of 0.313 µg/mL (≈ 0.769 µM) and an EC50 (Gaeumannomyces tritici [12]) of 0.111 µg/mL (≈ 0.274 µM). It also gave an EC50 (Gaeumannomyces tritici [13]) of 0.0988 µg/mL (≈ 0.243 µM), an EC50 (Gaeumannomyces tritici [14]) of 0.164 µg/mL (≈ 0.403 µM) and an EC50 (Gaeumannomyces tritici [15]) of 0.375 µg/mL (≈ 0.923 µM). For the same compound, the EC50 (Gaeumannomyces tritici [16]) was 0.159 µg/mL (≈ 0.392 µM), the EC50 (Gaeumannomyces tritici [17]) was 0.216 µg/mL (≈ 0.533 µM) and the EC50 (Gaeumannomyces tritici [18]) was 0.479 µg/mL (≈ 1.18 µM). For the same compound, the EC50 (Gaeumannomyces tritici [19]) was 0.261 µg/mL (≈ 0.643 µM), the EC50 (Gaeumannomyces tritici [20]) was 0.236 µg/mL (≈ 0.58 µM) and the EC50 (Gaeumannomyces tritici [21]) was 0.389 µg/mL (≈ 0.958 µM). It also gave an EC50 (Gaeumannomyces tritici [22]) of 0.142 µg/mL (≈ 0.349 µM), an EC50 (Gaeumannomyces tritici [23]) of 0.175 µg/mL (≈ 0.432 µM) and an EC50 (Gaeumannomyces tritici [24]) of 0.0884 µg/mL (≈ 0.218 µM). It also gave an EC50 (Gaeumannomyces tritici [25]) of 0.539 µg/mL (≈ 1.33 µM), an EC50 (Gaeumannomyces tritici [26]) of 0.668 µg/mL (≈ 1.64 µM) and an EC50 (Gaeumannomyces tritici [27]) of 0.273 µg/mL (≈ 0.672 µM). For the same compound, the EC50 (Gaeumannomyces tritici [28]) was 0.17 µg/mL (≈ 0.419 µM), the EC50 (Gaeumannomyces tritici [29]) was 0.0923 µg/mL (≈ 0.227 µM) and the EC50 (Gaeumannomyces tritici [30]) was 0.53 µg/mL (≈ 1.31 µM). For the same compound, the EC50 (Gaeumannomyces tritici [31]) was 0.335 µg/mL (≈ 0.825 µM), the EC50 (Gaeumannomyces tritici [32]) was 0.301 µg/mL (≈ 0.741 µM) and the EC50 (Gaeumannomyces tritici [33]) was 0.288 µg/mL (≈ 0.708 µM). For the same compound, the EC50 (Gaeumannomyces tritici [34]) was 0.154 µg/mL (≈ 0.38 µM), the EC50 (Gaeumannomyces tritici [35]) was 0.128 µg/mL (≈ 0.314 µM) and the EC50 (Gaeumannomyces tritici [36]) was 0.359 µg/mL (≈ 0.885 µM). It also gave an EC50 (Gaeumannomyces tritici [37]) of 0.102 µg/mL (≈ 0.251 µM).
